Experimental findings from ChEMBL document CHEMBL4732258, “Pyxinol bearing amino acid residues: Easily achievable and promising modulators of P-glycoprotein-mediated multidrug resistance” (Eur J Med Chem, 2021) are described below.

Data set [1] is described as follows: Antitumor activity against human KBV cells xenografted model assessed as reduction in tumor weight at 10 mg/kg in presence of 30 mg/kg paclitaxel. It is filed as functional. A general note: In xenograft studies the graft and the host belong to different species.
Data set [2] relates to KBV. The experiment in a line: Reversal of Pgp-mediated paclitaxel resistance in human KBV cells assessed as cell viability at 10 uM in presence of paclitaxel incubated for 72 hrs by MTT assay. The class given is cell-based. The conditions noted are these: filed as modulator. (Tetrazolium assays rely on reduction of a dye to a coloured formazan, in cell work by metabolically active cells.)

Data set [3] in a line: Induction of cell cycle arrest in human KBV cells assessed as accumulation at S phase at 10 uM after 24 hrs in presence of 0.1 uM paclitaxel by PI/RNaseA staining based flow cytometric analysis (reference value: 13.06 +/- 0.39%). It is filed as functional. (In general: A flow cytometer gives signals particle by particle.)
Data set [4] has as its system KBV. The experiment in a line: Reversal of Pgp-mediated multidrug resistance in human KBV cells assessed as fold change in vincristine IC50 at 10 uM after 72 hrs in presence of vincristine by MTT assay relative to control. It is filed as cell-based.
Data set [5] can be described thus: Induction of cell cycle arrest in human KBV cells assessed as accumulation at G1/G0 phase at 10 uM after 24 hrs by PI/RNaseA staining based flow cytometric analysis (reference value: 49.09 +/- 0.35%). It is filed as functional.
Data set [6] addresses T1, Broad substrate specificity ATP-binding cassette transporter ABCG2 (Homo sapiens, UniProt Q9UNQ0).
T1 sequence (Q9UNQ0 whole entry): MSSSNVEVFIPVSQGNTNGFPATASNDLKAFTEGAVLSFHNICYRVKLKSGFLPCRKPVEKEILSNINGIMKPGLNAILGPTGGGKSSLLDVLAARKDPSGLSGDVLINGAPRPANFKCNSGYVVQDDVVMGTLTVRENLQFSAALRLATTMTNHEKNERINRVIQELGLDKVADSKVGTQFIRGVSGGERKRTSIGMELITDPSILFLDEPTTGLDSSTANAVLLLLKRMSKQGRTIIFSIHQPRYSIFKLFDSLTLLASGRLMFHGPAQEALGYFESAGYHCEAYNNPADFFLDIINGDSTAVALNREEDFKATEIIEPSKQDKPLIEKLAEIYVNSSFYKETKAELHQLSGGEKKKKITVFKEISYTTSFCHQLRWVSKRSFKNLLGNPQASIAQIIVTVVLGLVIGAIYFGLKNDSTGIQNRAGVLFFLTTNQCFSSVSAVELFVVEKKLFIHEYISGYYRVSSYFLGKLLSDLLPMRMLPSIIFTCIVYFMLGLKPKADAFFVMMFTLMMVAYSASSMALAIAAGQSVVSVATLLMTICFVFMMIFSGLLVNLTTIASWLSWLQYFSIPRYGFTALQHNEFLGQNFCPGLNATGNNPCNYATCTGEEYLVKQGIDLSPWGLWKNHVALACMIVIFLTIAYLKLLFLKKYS
The experiment in a line: Reversal of BCRP-mediated multidrug resistance in human KBV cells assessed as fold change in mitoxantrone IC50 at 10 uM after 72 hrs in presence of mitoxantrone by MTT assay. It is filed as cell-based.

The nature of data set [7]: Induction of cell cycle arrest in human KBV cells assessed as accumulation at G1/G0 phase at 10 uM after 24 hrs in presence of 0.1 uM paclitaxel by PI/RNaseA staining based flow cytometric analysis (reference value: 50.74 +/- 0.07%). The class given is functional.
Data set [8] has as its system KBV. As to the kind of experiment: Reversal of Pgp-mediated multidrug resistance in human KBV cells assessed as fold change in paclitaxel IC50 at 10 uM after 72 hrs in presence of paclitaxel by MTT assay relative to control. It is filed as cell-based.
Data set [9] is described as follows: Induction of cell cycle arrest in human KBV cells assessed as accumulation at sub-G1 phase at 10 uM after 24 hrs in presence of 0.1 uM paclitaxel by PI/RNaseA staining based flow cytometric analysis (reference value: 5.83 +/- 0.31%). The class given is functional.
A short description of data set [10]: Induction of cell cycle arrest in human KBV cells assessed as accumulation at G2/M phase at 10 uM after 24 hrs in presence of 0.1 uM paclitaxel by PI/RNaseA staining based flow cytometric analysis (reference value: 28.03 +/- 0.95%). It is filed as functional.
The nature of data set [11]: Induction of cell cycle arrest in human KBV cells assessed as accumulation at G2/M phase at 10 uM after 24 hrs by PI/RNaseA staining based flow cytometric analysis (reference value: 33.81 +/- 0.57%). It is filed as functional.
Data set [12] can be described thus: Induction of cell cycle arrest in human KBV cells assessed as accumulation at sub-G1 phase at 10 uM after 24 hrs by PI/RNaseA staining based flow cytometric analysis (reference value: 4.26 +/- 0.35%). It is filed as functional.
Data set [13] is described as follows: Induction of cell cycle arrest in human KBV cells assessed as accumulation at S phase at 10 uM after 24 hrs by PI/RNaseA staining based flow cytometric analysis (reference value: 11.32 +/- 0.04%). The class given is functional.
For another data set, the species on record is Homo sapiens. As to the kind of experiment: Modulation of Pgp-ATPase activity (unknown origin) assessed as fold increase in ATP consumption at 0.5 mM preincubated for 5 mins followed by Mg-ATP addition and measured after 45 mins by microplate reader analysis. The settings on record: filed as modulator, time 50.0 min.
The subject of data set [14] is KBV. The experiment in a line: Reversal of Pgp-mediated multidrug resistance in human KBV cells assessed as fold change in paclitaxel IC50 at 5 uM after 72 hrs in presence of paclitaxel by MTT assay relative to control. The class given is cell-based.
Data set [15] can be described thus: Induction of cell cycle arrest in human KBV cells assessed as accumulation at S phase at 5 uM after 24 hrs in presence of 0.1 uM paclitaxel by PI/RNaseA staining based flow cytometric analysis (reference value: 13.06 +/- 0.39%). The class given is functional.
The test system of data set [16] is KBV. The experiment in a line: Reversal of Pgp-mediated paclitaxel resistance in human KBV cells assessed as cell viability at 5 uM in presence of paclitaxel incubated for 72 hrs by MTT assay. It is filed as cell-based. The settings on record: filed as modulator.
Data set [17] concerns KBV. The experiment in a line: Reversal of P-gp mediated drug efflux in human KBV cells assessed as increase in intracellular Rhodamine123 accumulation preincubated for 2 hrs followed by Rh123 addition measured after 0.5 hr by flow cytometry analysis. It is filed as cell-based. The settings on record: filed as modulator, dose 2-10 µM, time 2.5 hrs.
Data set [18] is described as follows: Induction of cell cycle arrest in human KBV cells assessed as accumulation at G1/G0 phase at 5 uM after 24 hrs in presence of 0.1 uM paclitaxel by PI/RNaseA staining based flow cytometric analysis (reference value: 50.74 +/- 0.07%). It is filed as functional.
Data set [19] is described as follows: Cytotoxicity against human KBV cells assessed as cell viability at 10 uM incubated for 72 hrs by MTT assay. The conditions noted are these: read-out: Activity. It is filed as cell-based.
In data set [20] the target is T1, Broad substrate specificity ATP-binding cassette transporter ABCG2. The experiment in a line: Reversal of BCRP-mediated multidrug resistance in human KBV cells assessed as fold change in mitoxantrone IC50 at 5 uM after 72 hrs in presence of mitoxantrone by MTT assay. It is filed as cell-based.
Data set [21] can be described thus: Induction of cell cycle arrest in human KBV cells assessed as accumulation at G2/M phase at 5 uM after 24 hrs in presence of 0.1 uM paclitaxel by PI/RNaseA staining based flow cytometric analysis (reference value: 28.03 +/- 0.95%). It is filed as functional.
Data set [22] deals with KBV. The experiment in a line: Reversal of Pgp-mediated multidrug resistance in human KBV cells assessed as fold change in vincristine IC50 at 5 uM after 72 hrs in presence of vincristine by MTT assay relative to control. It is filed as cell-based.
The nature of data set [23]: Induction of cell cycle arrest in human KBV cells assessed as accumulation at sub-G1 phase at 5 uM after 24 hrs in presence of 0.1 uM paclitaxel by PI/RNaseA staining based flow cytometric analysis (reference value: 5.83 +/- 0.31%). It is filed as functional.
The test system of data set [24] is KBV. The experiment in a line: Effect on Pgp protein expression in human KBV cells at 5 to 10 uM after 24 hrs by Western blot analysis. The class given is functional, cell-based. The settings on record: dose 5-10 µM.

Active and inactive are the calls of the source. No cut-off for these calls is given here.

As usually defined, the inhibition in vivo is how much of the control response was suppressed.

Take `CC(C)(C)OC(=O)NCCCCCC(=O)N[C@H]1CC[C@]2(C)[C@H]3C[C@@H](O)[C@@H]4[C@@H]([C@]5(C)CC[C@H](C(C)(C)O)O5)CC[C@@]4(C)[C@]3(C)CC[C@H]2C1(C)C`: the inhibition in vivo at 10 mg/kg in data set [1] was found to be 53.7%.

Turning to `COc1ccc(CCN(C)CCCC(C#N)(c2ccc(OC)c(OC)c2)C(C)C)cc1OC` (configuration not stated), the Activity in the data set on KBV [2] came to 28%; in data set [3], 11.57%; in [5] it was 51.35%; in [7], 11.1%; in data set [9], 18.47%; in data set [10], 57.42%. In addition, the Activity turned out to be 31.36% in [11], 4.69% in [12] and 11.44% in data set [13]. Also, the fold change (FC) in the data set on KBV [4] was 16; in data set [6] it was 1; in the data set on KBV [8], 40; in the data set listed under Homo sapiens, 5.6.

Take `CSCC[C@H](NC(=O)OC(C)(C)C)C(=O)O[C@H]1CC[C@]2(C)[C@H]3C[C@@H](O)[C@@H]4[C@@H]([C@]5(C)CC[C@H](C(C)(C)O)O5)CC[C@@]4(C)[C@]3(C)CC[C@H]2C1(C)C`: the fold change (FC) amounted to 25 in the data set with KBV [14]; 8 with KBV [4]; 1.6 in data set [6]; 59 in the data set on KBV [8]; 1.4 in data set [20]; 3 in the data set on KBV [22]. Besides, in the data set listed under Homo sapiens, the fold change (FC) worked out at 6. Besides, the Activity in [15] was 12.94%; in the data set with KBV [16], 26%; in the data set with KBV [17] it was “Dose-dependent effect”; in the data set on KBV [2], 21%; in data set [3] it was 11.1%; in data set [5], 42.81%. Besides, the Activity is recorded as 13.75% in data set [7]; 22.66% in [9]; 51.06% in [10]; 14% in [18]; 38.79% in data set [11]; 51.66% in data set [21]. The Activity in data set [12] was found to be 3.31%; in [23] it was 19.8%; in [13] it was 13.67%. Further, the viability at 72 h, 10 µM in data set [19] was found to be 120%. Further, the outcome with KBV [24] was inactive.

In the case of `CSCC[C@H](NC(=O)OC(C)(C)C)C(=O)O[C@H]1CC[C@]2(C)[C@H]3C[C@@H](O)[C@@H]4[C@@H]([C@]5(C)CC[C@@H](C(C)(C)O)O5)CC[C@@]4(C)[C@]3(C)CC[C@H]2C1(C)C`, the fold change (FC) in the data set with KBV [14] was 18; in the data set on KBV [4] it was 14; in [6] it was 1.2; with KBV [8], 51; in data set [20], 0.8; in the data set with KBV [22] it was 5. Also, the Activity in the data set on KBV [16] is 19%; in the data set with KBV [2], 16%. Besides, the viability at 72 h, 10 µM in data set [19] worked out at 88%.
